# Laboratory results reported in patent publication US7507727B2, “Substituted quinobenzoxazine analogs and methods of using thereof” (Cylene Pharmaceuticals, Inc., priority 2003, dated 2009).
# Target: c-Myc template DNA (c-myc quadruplex)
# Test: Quadruplex binding / stop assay (Taq polymerase arrest, capillary electrophoresis)
# Details: read-out: S DATA; Table 1D, stop assay data
# Excerpt: A high throughput polymerase arrest assay has been developed. The assay comprises contacting a template nucleic acid, often DNA, with a primer, which also is often DNA; contacting the primer/template complex with a compound described herein (also referred to as a “test compound”); contacting the primer/template complex with a polymerase; and separating reaction products. The assay often includes the step of denaturing the primer/template complex mixture and then renaturing the complex, which often is carried out before a test molecule is added to the system. Multiple assays often are carried out using varying concentrations of a test compound, such that an IC50 value can be obtained, for example. The reaction products often include extended primers of different lengths.
# Thus, the reaction mixture often includes at least two reaction products when a test compound interacts with a quadruplex structure in the template, one having a completely extended primer and one having an incompletely extended primer, and these two reaction products are separated. The products may be separated using any convenient separation method, such as mass spectrometry and in one embodiment, capillary electrophoresis.
# In an embodiment, a primer oligonucleotide covalently linked to a fluorescent label is contacted with template DNA. The resulting complex is contacted with a test molecule and then contacted with a polymerase capable of extending the primer. The reaction products then are separated and detected by capillary electrophoresis. A longer primer sequence was used for practicing this embodiment as compared to embodiments where the primer includes no covalently-linked fluorophore or where capillary electrophoresis is not utilized for separation. Deoxynucleotides are added at any stage of the assay before the separation, often when the primer is contacted with the template DNA. The template DNA/primer complex often is denatured (e.g., by increasing the temperature of the system) and then renatured (e.g., by cooling the system) before a test compound is added).
# The mixture was denatured at 95° C. for 5 minutes and, after cooling down to room temperature, was incubated at 37° C. for 15 minutes.
# After cooling down to room temperature, 1 mM KCl and the test compound (various concentrations) were added and the mixture incubated for 15 minutes at room temperature. The primer extension was performed by adding 10 mM KCl and Taq DNA Polymerase (2.5 U/reaction, Promega) and incubating at 70° C. for 30 minutes. The reaction was stopped by adding 1 μl of the reaction mixture to 10 μl Hi-Di Formamide mixed and 0.25 μl LIZ120 size standard. Hi-Di Formamide and LIZ120 size standard were purchased from Applied Biosystems.
# The partially extended quadruplex arrest product was between 61 or 62 bases long and the full-length extended product was 99 bases long. The products were separated and analyzed using capillary electrophoresis. Capillary electrophoresis was performed using an ABI PRISM 3100-Avant Genetic Analyzer.
# Stop Assays. […] A fluorescently labeled primer DNA is then annealed to the 3′ end of the template DNA. A DNA polymerase such as Taq polymerase is then introduced to synthesize a complementary strand of DNA by extending from the fluorescently labeled primer. When the progress of the Taq polymerase is unhindered, it synthesizes a full-length copy of the template.
# These products are visualized by capillary electrophoresis.
row,IC50 [µM],Compound
1,> 15,CN1CCN(CCCNc2c(F)cc3c(=O)c(C(=O)NCCCCNC(=N)N)cn4c3c2Oc2ccccc2-4)CC1 [compound 1631]
2,> 15,CC(C)OCCNc1c(F)cc2c(=O)c(C(=O)NCCC3CCCN3C)cn3c2c1Oc1cc2ccccc2cc1-3 (centres unmarked) [compound 1746]
3,> 15,CN(C)CC(C)(C)CNC(=O)c1cn2c3c(c(NCCN4CCCC4)c(F)cc3c1=O)Oc1ccccc1-2 [compound 1600]
4,> 15,O=C(NCCN1CCCC1)c1cn2c3c(c(SCCc4cnccn4)c(F)cc3c1=O)Oc1cccnc1-2 [compound 1786]
5,1.75,CCCCN1CCC(CNC(=O)c2cn3c4c(c(N5CCC(N)C5)c(F)cc4c2=O)Oc2cc4ccccc4cc2-3)CC1 (centres unmarked) [compound 1718]
6,> 15,CC(C)(C)OC(=O)NC1CCN(c2c(F)cc3c(=O)c(C(=O)NCCCCN)cn4c3c2Oc2ccccc2-4)C1 (centres unmarked) [compound 1589]
7,3,CCN(CC)CCCC(C)NC(=O)c1cn2c3c(c(N4CCC(c5cnccn5)C4)c(F)cc3c1=O)Oc1cc3ccccc3cc1-2 (centres unmarked) [compound 1719]
8,> 15,CN(C)CC(C)(C)CNC(=O)c1cn2c3c(c(NCCN4CCOCC4)c(F)cc3c1=O)Oc1ccccc1-2 [compound 1612]
9,1.75,COc1ccc2[nH]cc(CCNc3c(F)cc4c(=O)c(C(=O)NCCC5CCCN5C)cn5c4c3Oc3cc4ccccc4cc3-5)c2c1 (centres unmarked) [compound 1671]
10,5.3,N#Cc1ccc2c(c1)-n1cc(C(=O)NCCN3CCOCC3)c(=O)c3cc(F)c(N4CCC(N)C4)c(c31)O2 (centres unmarked) [compound 1793]
11,6.8,CN1CCCC1CCNC(=O)c1cn2c3c(c(N4CCC(c5cnccn5)C4)c(F)cc3c1=O)Oc1ccc(C#N)cc1-2 (centres unmarked) [compound 1776]
12,1,CN(C)CC(C)(C)CNC(=O)c1cn2c3c(c(NCCCN4CCOCC4)c(F)cc3c1=O)Oc1cc3ccccc3cc1-2 [compound 1652]
13,> 15,CN1CCCC1CCNC(=O)c1cn2c3c(c(NCCN4CCCC4)c(F)cc3c1=O)Oc1ccccc1-2 (centres unmarked) [compound 1596]
14,1,N=C(N)NCCCCNC(=O)c1cn2c3c(c(NCCN4CCCC4)c(F)cc3c1=O)Oc1cc3ccccc3cc1-2 [compound 1655]
15,1.75,COc1ccc(OC)c(CCNc2c(F)cc3c(=O)c(C(=O)NCCC4CCCN4C)cn4c3c2Oc2cc3ccccc3cc2-4)c1 (centres unmarked) [compound 1672]
16,10,CCC(=O)N1CCN(c2c(F)cc3c(=O)c(C(=O)NCCN4CCCC4)cn4c3c2Oc2cc(Cl)ccc2-4)CC1 [compound 1822]
17,8.5,O=C(O)c1cn2c3c(c(NCC4CCCO4)c(F)cc3c1=O)Oc1cc3ccccc3cc1-2 (centres unmarked) [compound 1740]
18,> 15,O=C(c1cn2c3c(c(N4CC5CCCNC5C4)c(F)cc3c1=O)Oc1cc3ccccc3cc1-2)N1CCC(N2CCCC2)CC1 (centres unmarked) [compound 1643]

# The next lines start with the compound.
row,Compound,IC50 [µM]
1,CC(C)N1CCN(c2c(F)cc3c(=O)c(C(=O)NCCCN4CCN(C)CC4)cn4c3c2Oc2ccccc2-4)CC1 [compound 1563],> 15
2,CN1CCCC1CCNC(=O)c1cn2c3c(c(NC4CN5CCC4CC5)c(F)cc3c1=O)Oc1cc3ccccc3cc1-2 (centres unmarked) [compound 1495],0.75
3,CN1CCCC1CCNc1ccc2c(=O)c(C(=O)NCCCN3CCOCC3)cn3c2c1Oc1cc2ccccc2cc1-3 (centres unmarked) [compound 1524],1.75
4,CN1CCCC1CCNC(=O)c1cn2c3c(c(NC4CC(C)(C)NC(C)(C)C4)c(F)cc3c1=O)Oc1cc3ccccc3cc1-2 (centres unmarked) [compound 1478],1
5,CC(C)N1CCN(c2c(F)cc3c(=O)c(C(=O)NCCC4CCCN4C)cn4c3c2Oc2ccccc2-4)CC1 (centres unmarked) [compound 1565],> 15

# Same assay, conditions: read-out: Stop Data c-Myc μM; concentration at which 50% of the DNA was arrested (arrested:full-length 1:1)
row,IC50 [µM],Compound
1,1.75,Nc1c(F)c(N2CCC(N)C2)c2c3c1c(=O)c(C(=O)N1CCC(N)C1)cn3-c1cc3ccccc3cc1O2 (centres unmarked) [compound 236]
2,0.41,CN(C)CCCCNc1c(F)cc2c(=O)c(C(=O)NCCN3CCCC3)cn3c2c1Oc1c-3ccc2ccccc12 [compound 498]
3,1.75,CC(C)(C)OC(=O)N[C@@H]1CCN(c2c(F)cc3c(=O)c(C(=O)NCCN4CCCC4)cn4c3c2Oc2c-4ccc3ccccc23)C1 [compound 133]
4,0.25,CN(C)CCCCNC(=O)c1cn2c3c(c(N4CC[C@@H](N)C4)c(F)cc3c1=O)Oc1cc3ccccc3cc1-2 [compound 567]
5,2.5,NCc1cn2c3c(c(N4CCC(N)C4)c(F)cc3c1=O)Oc1cc3ccccc3cc1-2 (centres unmarked) [compound 99]
6,0.9,CN1CCN(CCCNC(=O)c2cn3c4c(c(NCCCN5CCN(C)CC5)c(F)cc4c2=O)Oc2cc4ccccc4cc2-3)CC1 [compound 342]
7,1.75,CC(=O)N[C@@H]1CCN(c2c(F)cc3c(=O)c(C(=O)NCCCN4CCN(C)CC4)cn4c3c2Oc2cc3c(cc2-4)oc2ccccc23)C1 [compound 179]
8,1.75,NC1CCN(C(=O)c2cn3c4c(c(N5CC6CCCNC6C5)c(F)cc4c2=O)Oc2cc4ccccc4cc2-3)C1 (centres unmarked) [compound 282]
9,1.75,CN1CCN(CCCNC(=O)c2cn3c4c(c(NCCCN5CCOCC5)c(F)c(N)c4c2=O)Oc2cc4ccccc4cc2-3)CC1 [compound 223]
10,1.75,CN1CCN(CCCNc2c(F)cc3c(=O)c(C(=O)N4CCN(C)CC4)cn4c3c2Oc2cc3c(cc2-4)oc2ccccc23)CC1 [compound 154]
11,1.75,CN(C)CCCCNC(=O)c1cn2c3c(c(NCCCN4CCN(C)CC4)c(F)cc3c1=O)Oc1cc3c(cc1-2)oc1ccccc13 [compound 153]
12,2.5,O=C(c1cn2c3c(c(NCC4CCNCC4)c(F)cc3c1=O)Oc1cc3ccccc3cc1-2)N1CCOCC1 [compound 44]
13,1,O=C(NCCCn1ccnc1)c1cn2c3c(c(NCCCN4CCOCC4)c(F)cc3c1=O)Oc1cc3c(cc1-2)oc1ccccc13 [compound 313]
14,2.5,CN1CCCC1CCNC(=O)c1cn2c3c(c(NCCN4CCOCC4)c(F)cc3c1=O)Oc1cc3ccccc3cc1-2 (centres unmarked) [compound 57]
15,1.75,O=C(NCCN1CCCC1)c1cn2c3c(c(NCCN4CCCC4)c(F)cc3c1=O)Oc1c-2ccc2ccccc12 [compound 139]
16,2.5,N[C@@H]1CCN(C(=O)c2cn3c4c(c(NCCCN5CCOCC5)c(F)cc4c2=O)Oc2c-3ccc3ccccc23)C1 [compound 83]
17,1.75,CN1CCCC1CCNc1c(F)cc2c(=O)c(C(=O)NCCCN3CCOCC3)cn3c2c1Oc1cc2ccccc2cc1-3 (centres unmarked) [compound 122]
18,1.75,CN(C)CCCCNc1c(F)cc2c(=O)c(C(=O)N3CCN(C)CC3)cn3c2c1Oc1cc2c(cc1-3)oc1ccccc12 [compound 164]
19,1.75,CC(C)(C)OC(=O)N[C@@H]1CCN(c2c(F)cc3c(=O)c(C(=O)NCCN4CCCC4)cn4c3c2Oc2cc3ccccc3cc2-4)C1 [compound 121]
20,1.75,CN1CCCC1CCNC(=O)c1cn2c3c(c(Nc4ccccc4N4CCOCC4)c(F)cc3c1=O)Oc1cc3ccccc3cc1-2 (centres unmarked) [compound 264]
21,1.05,CCN(CC)CCNc1c(F)cc2c(=O)c(C(=O)N3CCOCC3)cn3c2c1Oc1cc2ccccc2cc1-3 [compound 305]
22,1.75,CN(C)CCCCNC(=O)c1cn2c3c(c(N4CC[C@@H](NC(=O)CCN5CCOCC5)C4)c(F)cc3c1=O)Oc1cc3c(cc1-2)oc1ccccc13 [compound 176]
23,1.75,O=C(O)c1cn2c3c(c(NCCCN4CCOCC4)c(F)cc3c1=O)Oc1cc3c(O)ncnc3cc1-2 [compound 12]
24,1.75,CN1CCCC1CCNC(=O)c1cn2c3c(c(N4CC[C@@H](NC(=O)OC(C)(C)C)C4)c(F)cc3c1=O)Oc1c-2ccc2ccccc12 (some centres unmarked) [compound 132]
